Values of other authors, collected in US6809181B2, “Human beta-defensin-3 (HBD-3), a highly cationic beta-defensin antimicrobial peptide” (University of Iowa Research Foundation, priority 2000, dated 2004).
≈ marks a conversion by molar mass, not a printed value. Read-outs that look alike come from different tables or passages of the source.

Assays:
[1] = tested on: Staphylococcus coagulase f; conditions: unit assumed; cited from earlier work
Streptococcus agalactiae = conditions: cited from earlier work
[2] = tested on: Staphylococcus aureus (methicillin resistant); conditions: cited from earlier work
[3] = tested on: Neisseria gonorrhoeae (non β-lactamase producer); conditions: cited from earlier work
Nocardia asteroides = conditions: n=78, r91, cited from earlier work
Bacteroides fragilis = conditions: n=97, r7, cited from earlier work
Corynebacterium JK = conditions: n=19; r46; unit assumed; cited from earlier work
Ureaplasma urealyticum = conditions: unit assumed, cited from earlier work
[4] = tested on: Staphylococcus aureus (penicillin resistant); conditions: n=35, r98, cited from earlier work
Streptococcus pneumoniae = conditions: cited from earlier work; for MIC90: unit assumed
[5] = tested on: Haemophilus influenzae (penicillin susceptible); conditions: n=22, r64, cited from earlier work
Borrelia burgdorferi = conditions: n=10; r12; unit assumed; cited from earlier work
Streptococcus pyogenes = conditions: cited from earlier work
Haemophilus ducreyi = conditions: n=122; r53; unit assumed; cited from earlier work
Staphylococcus hominis = conditions: n=20; r122; unit assumed; cited from earlier work
Haemophilus influenzae = conditions: cited from earlier work; for MIC50 / MIC90: unit assumed
[6] = tested on: Staphylococcus haemolyticus; conditions: n=20; r121; unit assumed; cited from earlier work
Bacillus spp. = conditions: cited from earlier work
Campylobacter pylori = conditions: n=56, r43, cited from earlier work
Bordetella pertussis = conditions: n=32; r10; unit assumed; cited from earlier work
[7] = tested on: Haemophilus influenzae (β-lactamase producer); conditions: cited from earlier work
Neisseria gonorrhoeae = conditions: n=19, r81, cited from earlier work
Enterococcus faecalis = conditions: cited from earlier work
Neisseria meningitidis = conditions: n=19, r90, cited from earlier work
Enterococcus faecium = conditions: n=14, r51, cited from earlier work
[8] = tested on: Haemophilus parainfluenzae; conditions: n=13, r68, cited from earlier work
[9] = tested on: Haemophilus influenzae (penicillin resistant); conditions: n=20, r66, cited from earlier work
[10] = tested on: Branhamella (Moraxella) catarrhalis (β-lactamase producer); conditions: cited from earlier work
Mycoplasma pneumoniae = conditions: cited from earlier work

For `CC[C@H]1OC(=O)[C@H](C)[C@@H](O[C@H]2C[C@@](C)(OC)[C@@H](O)[C@H](C)O2)[C@H](C)[C@@H](O[C@@H]2O[C@H](C)C[C@H](N(C)C)[C@H]2O)[C@](C)(O)C[C@@H](C)C(=O)[C@H](C)[C@@H](O)[C@]1(C)O` [ERYTHROMYCIN, erythromycin], the MIC50 [1] is listed as 0.25 µg/mL (≈ 0.341 µM), the Range (Streptococcus agalactiae; n=20, r123) is listed as 0.03-0.25 and the MIC50 (Streptococcus agalactiae; n=20, r123, unit assumed) is listed as 0.03 µg/mL (≈ 0.0409 µM). The Range (Streptococcus agalactiae; n=34, r124) was 0.015-0.06, the MIC50 (Streptococcus agalactiae; n=34, r124, unit assumed) was 0.03 µg/mL (≈ 0.0409 µM) and the MIC90 (Streptococcus agalactiae; n=34, r124, unit assumed) was 0.03 µg/mL (≈ 0.0409 µM). For the same molecule, the Range ([2]; n=15, r108) was 64, the MIC50 ([2]; n=15, r108, unit assumed) was 64 µg/mL (≈ 87.2 µM) and the Range ([2]; n=20, r110) was 64. The MIC50 ([2]; n=20, r110, unit assumed) was 64 µg/mL (≈ 87.2 µM), the Range ([2]; n=30, r112) was 0.06-32 and the MIC50 ([2]; n=30, r112, unit assumed) was 32 µg/mL (≈ 43.6 µM). The MIC90 ([2]; n=30, r112, unit assumed) was 32 µg/mL (≈ 43.6 µM), the Range ([3]; n=73, r82) was 0.015-4 and the Range ([3]; n=78, r84) was 0.03-2. The Range (Nocardia asteroides) was 0.25-8, the MIC50 (Nocardia asteroides; unit assumed) was 8 µg/mL (≈ 10.9 µM) and the MIC90 (Nocardia asteroides; unit assumed) was 8 µg/mL (≈ 10.9 µM). The Range (Bacteroides fragilis) was 0.25-16, the MIC50 (Bacteroides fragilis; unit assumed) was 1 µg/mL (≈ 1.36 µM) and the MIC90 (Bacteroides fragilis; unit assumed) was 8 µg/mL (≈ 10.9 µM). The MIC50 (Corynebacterium JK) was 2 µg/mL (≈ 2.73 µM), the MIC50 (Ureaplasma urealyticum; n=19, r138) was 16 µg/mL (≈ 21.8 µM) and the MIC90 (Ureaplasma urealyticum; n=19, r138) was 32 µg/mL (≈ 43.6 µM). For the same molecule, the MIC50 (Ureaplasma urealyticum; n=28, r137) was 2 µg/mL (≈ 2.73 µM), the Range [4] was 0.25-32 and the MIC50 ([4]; unit assumed) was 0.25 µg/mL (≈ 0.341 µM). For the same molecule, the MIC90 ([4]; unit assumed) was 32 µg/mL (≈ 43.6 µM), the Range (Streptococcus pneumoniae; n=26, r129) was 0.015-0.25 and the MIC90 (Streptococcus pneumoniae; n=26, r129) was 0.06 µg/mL (≈ 0.0818 µM). The Range (Streptococcus pneumoniae; n=50, r127) was 0.015-0.06, the MIC90 (Streptococcus pneumoniae; n=50, r127) was 0.03 µg/mL (≈ 0.0409 µM) and the MIC90 (Streptococcus pneumoniae; n=50, r130) was 0.06 µg/mL (≈ 0.0818 µM). For the same molecule, the Range (Streptococcus pneumoniae; n=58, r125) was 0.03-0.25, the Range [5] was 0.25-16 and the MIC50 ([5]; unit assumed) was 8 µg/mL (≈ 10.9 µM). The MIC90 ([5]; unit assumed) was 16 µg/mL (≈ 21.8 µM), the MIC50 (Borrelia burgdorferi) was 0.03 µg/mL (≈ 0.0409 µM) and the MIC90 (Borrelia burgdorferi) was 0.06 µg/mL (≈ 0.0818 µM). The Range (Streptococcus pyogenes; n=19, r131) was 0.03-0.25, the Range (Streptococcus pyogenes; n=20, r132) was 0.03-0.25 and the Range (Streptococcus pyogenes; n=20, r134) was 0.06-32. For the same molecule, the MIC90 (Streptococcus pyogenes; n=20, r134, unit assumed) was 32 µg/mL (≈ 43.6 µM), the Range (Streptococcus pyogenes; n=33, r133) was 0.015-0.03 and the MIC50 (Streptococcus pyogenes; n=33, r133, unit assumed) was 0.03 µg/mL (≈ 0.0409 µM). For the same molecule, the MIC90 (Streptococcus pyogenes; n=33, r133, unit assumed) was 0.03 µg/mL (≈ 0.0409 µM), the MIC50 (Haemophilus ducreyi) was 0.004 µg/mL (≈ 0.00545 µM) and the MIC90 (Haemophilus ducreyi) was 0.06 µg/mL (≈ 0.0818 µM). For the same molecule, the MIC50 (Staphylococcus hominis) was 64 µg/mL (≈ 87.2 µM), the Range (Haemophilus influenzae; n=97, r55) was 0.25-16 and the MIC50 (Haemophilus influenzae; n=97, r55) was 1 µg/mL (≈ 1.36 µM). The MIC90 (Haemophilus influenzae; n=97, r55) was 4 µg/mL (≈ 5.45 µM), the Range (Haemophilus influenzae; n=145, r54) was 0.5-8 and the MIC50 (Haemophilus influenzae; n=145, r54) was 2 µg/mL (≈ 2.73 µM). For the same molecule, the MIC90 (Haemophilus influenzae; n=145, r54) was 2 µg/mL (≈ 2.73 µM), the MIC50 [6] was 64 µg/mL (≈ 87.2 µM) and the Range (Bacillus spp.; n=20, r6) was 0.03-2. For the same molecule, the MIC90 (Bacillus spp.; n=20, r6, unit assumed) was 2 µg/mL (≈ 2.73 µM), the MIC50 (Bacillus spp.; unit assumed) was 0.25 µg/mL (≈ 0.341 µM) and the Range (Campylobacter pylori) was 0.25-16. The MIC50 (Campylobacter pylori; unit assumed) was 0.5 µg/mL (≈ 0.681 µM), the MIC90 (Campylobacter pylori; unit assumed) was 1 µg/mL (≈ 1.36 µM) and the MIC50 (Bordetella pertussis) was 0.25 µg/mL (≈ 0.341 µM). For the same molecule, the Range ([7]; n=17, r62) was 0.25-4, the Range ([7]; n=46, r60) was 0.06-8 and the Range (Neisseria gonorrhoeae) was 0.0075-8. For the same molecule, the MIC50 (Neisseria gonorrhoeae; unit assumed) was 0.25 µg/mL (≈ 0.341 µM), the MIC90 (Neisseria gonorrhoeae; unit assumed) was 1 µg/mL (≈ 1.36 µM) and the Range (Enterococcus faecalis; n=26, r47) was 1-64. For the same molecule, the MIC50 (Enterococcus faecalis; n=26, r47, unit assumed) was 1 µg/mL (≈ 1.36 µM), the MIC90 (Enterococcus faecalis; n=26, r47, unit assumed) was 4 µg/mL (≈ 5.45 µM) and the Range (Enterococcus faecalis; n=50, r48) was 0.06-64. For the same molecule, the MIC50 (Enterococcus faecalis; n=50, r48, unit assumed) was 4 µg/mL (≈ 5.45 µM), the MIC50 (Enterococcus faecalis; n=86, r49, unit assumed) was 1 µg/mL (≈ 1.36 µM) and the MIC50 (Enterococcus faecalis; n=97, r50, unit assumed) was 2 µg/mL (≈ 2.73 µM). The Range (Neisseria meningitidis) was 0.5-8, the MIC50 (Neisseria meningitidis; unit assumed) was 1 µg/mL (≈ 1.36 µM) and the MIC90 (Neisseria meningitidis; unit assumed) was 8 µg/mL (≈ 10.9 µM). For the same molecule, the Range (Enterococcus faecium) was 0.06-64, the MIC50 (Enterococcus faecium; unit assumed) was 1 µg/mL (≈ 1.36 µM) and the Range [8] was 0.5-8. The MIC50 ([8]; unit assumed) was 2 µg/mL (≈ 2.73 µM), the MIC90 ([8]; unit assumed) was 4 µg/mL (≈ 5.45 µM) and the Range [9] was 8-16. The MIC50 ([9]; unit assumed) was 8 µg/mL (≈ 10.9 µM), the MIC90 ([9]; unit assumed) was 16 µg/mL (≈ 21.8 µM) and the Range ([10]; n=47, r29) was 0.06-1. The Range ([10]; n=58, r32) was 0.03-0.25, the Range ([10]; n=160, r35) was 0.06-8 and the Range (Mycoplasma pneumoniae; n=10, r79) was 0.06-8. The MIC90 (Mycoplasma pneumoniae; n=10, r79, unit assumed) was 0.06 µg/mL (≈ 0.0818 µM), the Range (Mycoplasma pneumoniae; n=14, r80) was 0.004-0.03 and the MIC50 (Mycoplasma pneumoniae; n=14, r80, unit assumed) was 0.004 µg/mL (≈ 0.00545 µM). For the same molecule, the MIC90 (Mycoplasma pneumoniae; n=14, r80, unit assumed) was 0.004 µg/mL (≈ 0.00545 µM).
